The values that follow come from publication PMC10567728, “Targeted imaging of uPAR expression in vivo with cyclic AE105 variants” (Scientific Reports, 2023).

In data set [1] the test system is uPAR expression in U87MG tumor-bearing mice. Format: in vivo. The note with it: [64Cu]Cu-DOTA peptides. How it is done:
Five weeks old female NMRI nude mice were purchased from Janvier (Le Genest-Saint-Isle, France) and housed in groups to acclimatize for a week upon arrival with light/dark period of 12/12 h and under controlled environmental conditions (temperature: 20–22 °C, relative humidity: 55%). Access to fresh water and standard pellet diet was provided ad libitum. Human glioblastoma cancer cell line U87MG (ATCC, Manassas, USA) was cultured in Dulbecco’s modified eagle medium (DMEM) supplemented with 10% fetal bovine serum and 1% penicillin–streptomycin at 37 °C and 5% CO2. Cells were harvested by trypsinization at a confluence of 70–90%. Mice were anesthetized (3–4% sevoflurane in 65% N2 and 35% O2) and ~ 4 × 10^6 U87MG cells resuspended in 100 μL PBS were injected subcutaneously into the right flank. Tumors were allowed to grow for 20 days. Tumor sizes were monitored using caliper measurements (Volume = 0.5 x (Length x Width^2)).
Tumor-bearing mice (tumor volumes (mean ± SD) of 221 ± 105 mm^3) were grouped (n = 6 per group) and anesthetized (3–4% sevoflurane in 65% N2 and 35% O2) prior to imaging. The four different [^64Cu]Cu–DOTA conjugated peptides were administered via tail vein injections of 5.4 ± 0.4 MBq corresponding to 118 ± 7 pmol (1b), 111 ± 4 pmol (8b), 92 ± 3 pmol (9b), and 75 ± 4 pmol (11b) (mean ± SD). Whole-body imaging consisting of a CT acquisition followed by a static PET acquisition was performed on an Inveon® small animal imaging system (Siemens Medical Systems, Malvern, PA, USA). PET/CT imaging was performed 1 h, 22 h, and 46 h post-injection (p.i.) of tracer with a 5 min, 10 min and 15 min PET scan, respectively. During scans the animals were placed on a heated bedding system to keep the body temperature stable. The PET acquisition was performed with an energy window of 350–650 keV and a time resolution of 6 ns, and data was corrected for dead time and decay. The CT scan consisted of 360 projections, with a tube voltage of 65 kV, a tube current of 500 μA and an exposure time of 400 ms per projection. Sinograms from PET scans were reconstructed using a 3-dimensional maximum a posteriori algorithm with correction for scatter and attenuation (CT-based). PET and CT images were co-registered and analyzed using Inveon Research Workplace software (Siemens Medical Solutions). The mean percentage of injected dose per grams (%ID/g) in different tissues was extracted by manually creating regions of interest (ROI) on fused PET/CT images.

In data set [2] the target is T1, uPAR (Homo sapiens, UniProt Q03405).
T1 construct: Recombinant human uPAR^1–283 was expressed; made in house; host or cells: Drosophila melanogaster S2 cells
Briefly: SPR real-time binding kinetics, peptides in solution and immobilised uPAR. The method, then: The real-time binding kinetics of uPAR•peptide interactions were measured with SPR using a Biacore T200™(Cytiva); essentially as described in[56],[77]. In brief, uPAR was covalently immobilised on a CM5 sensor chip via amine coupling resulting in a surface density of 1157–1581 RU (~ 33–44 fmol/mm^2). The binding kinetics for the peptides to immobilised uPAR were measured using a single cycle protocol. In this setup, peptides were injected as five serial two-fold dilutions with a contact time of 200 s. After the last analyte injection, the dissociation time was set to 1000 s. The sensor chip was regenerated with two consecutive injections of 0.1 M acetic acid in 0.5 M NaCl. All experiments were conducted at 20 °C with a flow rate of 50 µL/min in 10 mM HEPES, 150 mM NaCl, 3 mM EDTA, and 0.05% (v/v) surfactant P-20 at pH 7.4. The kinetic rate constants (kon and koff) were determined by non-linear regression fitting of the curves to the simple bimolecular interaction model (BiacoreT200 Evaluation™ 3.0 software).

Data set [3] concerns the target T1, uPAR. Briefly: Nano-DSF thermal stability of uPAR•peptide complexes. The note with it: for Tm (apparent melting temperature of uPAR•peptide complex): 15 µM uPAR, 30 µM peptide, PBS pH 7.4, n = 3; for increase in apparent Tm: DOTA-conjugated peptides, compared to (1b). How it is done: The thermal stability of the uPAR•peptide complexes was analyzed with Nano-DSF using a Prometheus NT.48™ (Nanotemper). uPAR (15 µM) was mixed with twofold excess of peptide (30 µM) in PBS pH 7.4 and incubated for 15 min at RT to ensure complex formation. Samples containing either 15 µM uPAR or 30 µM of each peptide were included as controls. The samples were loaded into standard capillaries and in triplicates. To unfold the proteins, the samples were exposed to an increasing temperature gradient from 20 to 95 °C with a ramping rate of 1 °C/min. The excitation power was set to 50% (Ex.280 nm) and the fluorescence emission collected at 330 nm and 350 nm. The melting temperatures of the complexes were determined in the PR.ThermControl software (Nanotemper) from the first derivative of the fluorescence ratio (350 nm/330 nm).
On the technique in general: DSF heats the sample and reads unfolding from a dye or from intrinsic fluorescence.

In the next data set the target is T2, uPAR•uPA interaction (Homo sapiens, UniProt Q03405).
T2 construct: Recombinant human uPAR^1–283 was expressed; made in house; host or cells: Drosophila melanogaster S2 cells
Briefly: SPR competition assay of the uPAR•uPA interaction. Format: binding. The note with it: for IC50: competition of uPAR•uPA interaction, 2 nM uPAR, 20 °C, n = 3. The method, then: The IC50-values of antagonistic peptides on the uPAR•uPA interaction were determined with SPR using a Biacore T200™ or Biacore 3000™ instruments (Cytiva) essentially as described[4],[56],[77]. In brief, we immobilized high levels of pro-uPA^S356A (0.1 pmol pro-uPA/mm^2) on a CM5 sensor chip via amine coupling. The experiments were conducted by injecting 2 nM uPAR in presence of a threefold dilution series of a given antagonistic peptide for 300 s with a flow rate of 50 µL/min at 20 °C. The high immobilization levels result in binding conditions that are entirely controlled by mass transport limitations (MTL). Accordingly, the observed association rates (vobs) are directly proportional to the concentrations of binding-active uPAR in solution. To determine the IC50, we also measured a standard curve of uPAR binding (a twofold dilution series of 0.06 to 2 nM uPAR, linear due to MTL). The running buffer was 10 mM HEPES, 150 mM NaCl, 3 mM EDTA, and 0.05% (v/v) surfactant P-20 at pH 7.4, and the regeneration buffer was 0.1 M acetic acid in 0.5 M NaCl.

The next data set deals with U87MG tumor-bearing mice. Briefly: Ex vivo biodistribution by gamma-counting of resected organs. Format: in vivo. The note with it: [64Cu]Cu-DOTA peptides, ex vivo at 46 h; also tumor to muscle or heart ratios. How it is done:
After the last PET/CT scan at 46 h p.i., mice were euthanized by cervical dislocation under anesthesia, and tumor, blood, heart, lung, liver, spleen, kidney, and muscle tissue were resected. All tissues were weighted, and the radioactivity measured in a gamma counter (Wizard2, Perkin Elmer). Data was corrected for decay, tissue weight and injected amount of radioactivity.

Data set [4] addresses uPAR. The conditions noted are these: read-out: KD of the uPA•uPAR interaction; cited from earlier work.
[5] abbreviates: [63Cu]-DOTA labelled peptides, single-cycle SPR.
Setting [6] is: single cycle SPR, immobilised uPAR, 20 °C.
The mark [7] stands for this setting: single cycle SPR, immobilised uPAR, 20 °C, 1:1 model.
The mark [8] stands for this setting: single cycle SPR, immobilised uPAR, 20 °C, read-out: kon.

Where two headings read alike, the source gives them in different places. Positions of bridges follow the written chain, without caps; N, C: chain ends. Non-standard residues stand in square brackets, D forms with d. Residues, ends and D or L forms follow the SMILES beside them. *: point of attachment. DOTA = O=C(O)CN1CCN(CC(=O)O)CCN(CC(=O)*)CCN(CC(=O)O)CC1; Cha = N[C@@H](CC1CCCCC1)C(=O)O

T1 sequence (Q03405 23-305): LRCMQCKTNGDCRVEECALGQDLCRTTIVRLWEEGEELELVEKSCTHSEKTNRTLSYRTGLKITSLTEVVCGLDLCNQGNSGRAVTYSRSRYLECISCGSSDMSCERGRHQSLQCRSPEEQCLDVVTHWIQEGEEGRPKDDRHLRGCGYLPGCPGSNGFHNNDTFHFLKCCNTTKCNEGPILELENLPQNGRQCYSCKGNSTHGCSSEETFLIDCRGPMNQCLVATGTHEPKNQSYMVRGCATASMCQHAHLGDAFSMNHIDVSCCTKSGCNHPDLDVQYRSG
T2 sequence (Q03405 23-305): as above

Broadly, the Kd is the free concentration of one partner at which half of the binding sites on the other are occupied at equilibrium, for simple one-to-one binding. As usually defined, the koff is a measure of how fast the partners let go of each other. As usually defined, the kon is the second-order rate constant of association. As a reminder, the IC50 is the midpoint of a concentration-inhibition curve. Read a low IC50 as greater potency. For the compound `CC(C)C[C@H](NC(=O)[C@H](Cc1ccc(O)cc1)NC(=O)[C@@H](CCCNC(=N)N)NC(=O)[C@@H](CO)NC(=O)[C@H](Cc1ccccc1)NC(=O)[C@H](CC1CCCCC1)NC(=O)[C@H](CC(=O)O)NC(=O)CN1CCN(CC(=O)O)CCN(CC(=O)O)CCN(CC(=O)O)CC1)C(=O)N[C@@H](Cc1c[nH]c2ccccc12)C(=O)N[C@@H](CO)C(N)=O` [8b], the “tumor uptake and imaging contrast, (1b) compared with (8b)” value in data set [1] (PET scanning or ex vivo counting of resected organs) was “no significant differences”. At uPAR [2] (setting [5]), this compound registered a Kd of 13.9 nM and an off-rate (koff) of 0.00425 ± 1e-05 s⁻¹. The “reduction of affinity on DOTA-conjugation” value at uPAR [2] (real-time binding kinetics, vs unconjugated peptides) is given as 8–11 fold. This compound also registered a koff on uPAR [2] (setting [6]) of 0.002064 ± 2e-06 s⁻¹. For the same compound, on uPAR [2] (setting [7]), the Kd was determined as 4.22 nM. For the same compound, on uPAR [2] (setting [8]), the kon was determined as 490000 ± 1000 M⁻¹ s⁻¹. For the same compound, in the data set with uPAR [3], the “Tm (apparent melting temperature of uPAR•peptide complex)” value is ~ 70 °C and the “increase in apparent Tm” value is “approximately 11 °C”. Moreover, the “IC50 of DOTA-conjugated peptide compared to unconjugated peptide” value on uPAR•uPA interaction ((1b) vs (1), (8b) vs (8)) was “four to fivefold higher”. At uPAR•uPA interaction, this compound yielded an IC50 of 8.2 ± 0.1 nM.

`CC(C)C[C@@H]1NC(=O)[C@H](Cc2ccc(O)cc2)NC(=O)[C@H](NC(=O)[C@@H](CO)NC(=O)[C@H](Cc2ccccc2)NC(=O)[C@H](CC2CCCCC2)NC(=O)[C@H](CC(=O)O)NC(=O)CN2CCN(CC(=O)O)CCN(CC(=O)O)CCN(CC(=O)O)CC2)CSSC[C@@H](C(N)=O)NC(=O)[C@H](Cc2c[nH]c3ccccc23)NC1=O` [9b] ({DOTA}-D[Cha]F[dS][dC]YLWC-NH2; disulfide 5-9): the “tumor uptake and tumor-to-organ ratios compared to linear control (8b)” value in data set [1] is given as “significant albeit weak improvement”. The “difference in tumor max compared to (8b)” value in data set [1] (PET at 22 h) is “statistically significant”. Also, the “tracer uptake compared to (8b)” value in data set [1] (all PET scans (1 h, 22 h, 46 h)) is reported as “small but consistently higher uptake”. Besides, the “difference in activity of resected tumors compared to (8b)” value with U87MG tumor-bearing mice is on record as “statistically significant”. Besides, at uPAR [2] (setting [5]), the affinity, expressed as Kd, was 22 nM; the koff is 0.00659 ± 2e-05 s⁻¹; the kon was 2.99 ± 0.04 105 M-1 s-1. This compound returned a koff on uPAR [2] (setting [6]) of 0.002744 ± 4e-06 s⁻¹. The Kd at uPAR [2] (setting [7]) came out at 4.26 nM. Further, the on-rate (kon) at uPAR [2] (setting [8]) stood at 644000 ± 2000 M⁻¹ s⁻¹. In the data set with uPAR [3], the “Tm (apparent melting temperature of uPAR•peptide complex)” value is no less than 70 °C and the “increase in apparent Tm” value was “approximately 11 °C”. At uPAR•uPA interaction, the IC50 is 7.3 ± 0.2 nM.

Take “urokinase-type plasminogen activator [uPA]”: the Kd on uPAR [4] is 0.02 nM.
